The values that follow come from US20160303094A1, “PHARMACEUTICAL COMPOSITIONS COMPRISING ANTIBACTERIAL AGENTS” (priority 2013, published 2016).

SMILES strings stand for the structures. Where a name gives a salt, the structure may show the parent alone.

This test relates to A. baumannii S 226 strain producing CHDL Oxacillinases (OXA 51, OXA-23). Nature of the test: Time-kill study: viable bacterial count in Mueller Hinton broth. Type of test: cell-based, Acinetobacter baumannii. Conditions: for Bacterial count: initial count 6.62 log CFU/ml. The method, then: The antibacterial activity of compositions according to the invention against various bacterial strains was investigated. In a typical study, freshly grown cultures were diluted to required cell density (initial starting inoculum) in Mueller Hinton broth medium (BD, USA). The antibacterial agents, either alone or in combination, at required concentrations were added into the medium containing the desired initial starting inoculum. The samples were incubated under shaking condition (120 rpm) at 37° C. Enumeration of viable bacterial count was undertaken, every 2 hours, by diluting in normal saline and plating on to the Tryptic Soya Agar plates (BD, USA). The plates were incubated for 24 hours to arrive at the viable bacterial count. The antibacterial activity is expressed in terms of Colony Forming Units (CFU). The decrease of 1 Log CFU/ml, after administration of combination of present invention, in comparison to initial bacterial count corresponds to 90% killing of bacteria. Similarly, 2 Log CFU/ml reductions corresponds to 99% killing of bacteria and 3 Log CFU/ml reductions is equal to 99.9% killing of bacteria.
The combination according to invention was tested against highly resistant A. baumannii S 226 strain producing Carbapenem hydrolyzing (CHDL) Oxacillinases [OXA-51, OXA-23]. The assay without any antibacterial agent was taken as control.

[1] abbreviates: 2 hours, active ingredient alone at 8 mcg/ml.
Where [2] appears, read: 4 hours, active ingredient alone at 8 mcg/ml.
Where [3] appears, read: 6 hours, active ingredient alone at 8 mcg/ml.
Setting [4] is: 8 hours, active ingredient alone at 8 mcg/ml.
[5] abbreviates: 24 hours, active ingredient alone at 8 mcg/ml.

Turning to `C[C@@H](O)[C@H]1C(=O)N2C(C(=O)O)=C(S[C@@H]3CN[C@H](C(=O)N(C)C)C3)[C@H](C)[C@H]12` [Meropenem], the Bacterial count reads like this: under setting [1], 8.00 Log10 CFU/ml; under setting [2], 8.34 Log10 CFU/ml; under setting [3], 8.45 Log10 CFU/ml; under setting [4], 8.65 Log10 CFU/ml; under setting [5], 8.70 Log10 CFU/ml. Under “used alone at 8 mcg/ml”, the “decrease of the bacterial count of A. baumannii throughout the duration of the study” value (“decrease” for short) was “failed to decrease the bacterial count”.

`C[C@@H](O)[C@H]1C(=O)N2C(C(=O)O)=C(S[C@@H]3CN[C@H](CNS(N)(=O)=O)C3)[C@H](C)[C@H]12` [Doripenem]: the Bacterial count under setting [1] stood at 7.95 Log10 CFU/ml; the Bacterial count under setting [2] turned out to be 8.08 Log10 CFU/ml; the Bacterial count under setting [3] was found to be 8.12 Log10 CFU/ml; the Bacterial count under setting [4] is reported as 8.50 Log10 CFU/ml; the Bacterial count under setting [5] is listed as 8.30 Log10 CFU/ml. The “decrease” value (used alone at 8 mcg/ml) was “failed to decrease the bacterial count”.

As to `C[C@@H](O)[C@H]1C(=O)N2C(C(=O)O)=C(SCCN=CN)C[C@H]12` [Imipenem], the Bacterial count runs as follows: under setting [1], 7.46 Log10 CFU/ml; under setting [2], 8.26 Log10 CFU/ml; under setting [3], 8.43 Log10 CFU/ml; under setting [4], 8.52 Log10 CFU/ml; under setting [5], 8.74 Log10 CFU/ml.

As to `N#C[C@@H]1CC[C@@H]2CN1C(=O)N2OS(=O)(=O)O` [Sodium salt of a compound of Formula (I), sodium salt of sulphuric acid, mono[(1R,2S,5R)-2-cyano-7-oxo-1,6-diazabicyclo[3.2.1]oct-6-yl] ester], the Bacterial count is, setting by setting: (2 hours, active ingredient alone at 4 mcg/ml) 7.93 Log10 CFU/ml; (4 hours, active ingredient alone at 4 mcg/ml) 7.95 Log10 CFU/ml; (6 hours, active ingredient alone at 4 mcg/ml) 8.20 Log10 CFU/ml; (8 hours, active ingredient alone at 4 mcg/ml) 8.50 Log10 CFU/ml; (24 hours, active ingredient alone at 4 mcg/ml) 8.60 Log10 CFU/ml. For the same molecule, the “decrease” value (used alone at 4 mcg/ml) was “failed to decrease the bacterial count”.
